Laboratory results published in patent US20190216751A1, “Compositions and Methods for the Treatment and Prevention of Cancer” (California State University Northridge, priority 2017, published 2019).

Legend:
67NR cells = test: Cell proliferation assay (CellTiter 96 AQueous One, MTS); type: cell-based, mouse
Excerpt: (§1) The next research questions revolved around asking how TGFβ is regulating eIF5A and what other proteins might be involved to completely block TGFβ-induced EMT. This led to histone deacetylase enzyme 6 (HDAC6). HDAC6 has been previously reported to be responsible for the deacetylation of eIF5A in the nucleus in order to make it readily available for hypusination and later transport out in the cytoplasm for functioning as a translation factor. To determine if it were possible to further increase the efficacy or potency of GC7, the inventors co-treated with Tubastatin A (an HDAC6 inhibitor) in 4T1 and 67NR cells as well as MDA-MB-468 cells which initially were not very sensitive to GC7. Triple negative human breast cancer cell line, […], was also used to see if another cell line representative of this breast cancer subtype was sensitive towards DHPS and HDAC6 inhibition. (FIGS. 5A and 5B). Here, are shown cell viability graphs for these four cell lines pretreated with GC7 at 1 μM and after 12 hours were exposed to various concentrations of Tubastatin A (TubA) ranging from 0.1 nM to 100 μM. […] MDA-MB-468 and BT549 cells remained to be insensitive to TubA with or without GC7 pretreatment (FIG. 5A). Next, the inventors performed the opposite cell viability experiment in which these four cell lines were pretreated with TubA at 1 μM and then exposed these cells to various concentrations of GC7 ranging from 0.1 nM to 1 mM. […] 4T1 cells were treated with TubA at 10 μM, GC7 at 10 μM or both drugs simultaneously for 48, 72 and 96 hours. […] To test this, the inventors looked further into the changes of eIF5A localization when treating with TubA, GC7 or both drugs simultaneously. In FIG. 5D is shown immunofluorescence staining of 4T1 cells treated with TubA at 10 μM, GC7 at 10 μM or both drugs at those same concentrations for 48 hours. […] DAPI was used to stain the nuclei shown in the […] channel and phase-contrast images are shown as reference (FIG. 5D). […] Protein lysates were also collected at the same time point described in FIG. 5D. Twenty μg of protein for each condition was run on a Bis-Tris […] gel then transferred onto a nitrocellulose membrane before staining total protein using Ponceau S (FIG. 5E).
(§2) The CellTiter 96® AQueous One Solution (Promega) was used to perform cell proliferation experiments. Cells were plated at 5e3 cells/mL at 200 μL/well in a 96-well plate and allowed to attach overnight. Cells were then treated with indicated drugs the next day at various concentrations. After 72 hours of drug treatments, 40 μL of AQueous One solution was added to each well. Absorbance readings were measured at 490 nm wavelength at 1.5, 2 and 3 hours (absorbance is directly proportional to the number of living cells).

4T1 cells [1] = test: as above; type: cell-based, mouse
Excerpt: as §1, §2

4T1 cells [2] = test: Cell number by phase-contrast images, with TGFβ; type: cell-based, mouse; conditions: 10 μM each drug, 96-hour time point
Procedure: Next, the inventors investigated whether blockade of HDAC6 and DHPS activity could further suppress TGFβ-induced EMT either independently or simultaneously. To test this, 4T1 cells were treated with either TubA at 10 μM, GC7 at 10 μM or both for 48 hours. At this time point, protein lysates were collected as well as phase-contrast images (FIGS. 6B and 6C). At that same time point, the media was changed and the cells were re-treated with the same drugs at the same concentrations; however, this time with the addition of TGFβ at 2.5 ng/mL. The inventors collected protein lysates and phase-contrast images just one day post TGFβ treatment, calling this the 72-hour time point (FIGS. 6B and 6C). In addition, the inventors collected mRNA, protein lysates, phase-contrast and immunofluorescences images two days post TGFβ treatment, calling this the 96-hour time point (FIGS. 6A, 6B, 6C and 6D).
Images were taken of cells plated on a 6 well plate with appropriate conditions or treatments for experiment using widefield-brightfield phase contrast microscopy on a Leica DMI6000 B inverted microscope at 20× magnification.

[3] = tested on: FOXP3+ T regulatory cell populations; conditions: increasing concentrations of GC7, type 1 diabetic mice in vivo; cited from earlier work
[4] = tested on: eIF5A localization in 67NR cells; test: Immunofluorescence, subcellular localization of total eIF5A; type: cell-based, mouse; conditions: 1 and 10 μM GC7, 48 hours
Procedure: Thus, we interrogated the subcellular localization of eIF5A protein using immunofluorescent staining under control as well as 1 and 10 μM GC7 treatment conditions in triple negative breast cancer lines (FIGS. 12A and 12B).
Cells were plated at 1e4 cells/mL at 4 mL in a 6-well plate containing a sterile glass coverslip and allowed to attach overnight. Cells were then treated with appropriate inhibitors at indicated concentrations and time-points. Cells were first fixed using 4% paraformaldehyde for 20 minutes. Cells were then subjected to Triton-X to permeabilize the cells before treatment with specific antibodies in 2% BSA in PBS. After primary antibody incubation for 90 minutes, cells were washed with PBS three times before incubating with secondary antibodies in 2% BSA in PBS for 1 hour. Cells were again washed with PBS three times before set overnight staining with DAPI. Cells were then imaged using a Leica DMI6000 inverted microscope at 100× magnification.

MCF10A = test: Cell proliferation assay (CellTiter 96 AQueous One, MTS); type: cell-based, human; conditions: non-malignant mammary cell line
Procedure: as §2

[5] = TubA 1 μM pretreatment, GC7 0.1 nM to 1 mM

## N=C(N)NCCCCCCCN.O=S(=O)(O)O [GC7, N1-Guanyl-1,7-diaminoheptane]
67NR cells; 72 hours, 0.1 nM→1 mM
  efficacy after GC7 treatment (cell viability): largest efficacy
67NR cells; [5]
  change of potency of GC7 by TubA pretreatment (cell viability): this effect was not seen in the three other cell lines
4T1 cells [1]; 72 hours, 0.1 nM→1 mM
  efficacy after GC7 treatment (cell viability): largest efficacy
4T1 cells [1]; [5]
  change of potency of GC7 by TubA pretreatment (cell viability): subtly decreased
4T1 cells [2]
  cell number: drastic reduction in cell number
[3]
  FOXP3+ T regulatory cell populations: significant reduction in FOXP3+ T regulatory cell populations
[4]
  nuclear depletion of eIF5A: Nuclear depletion of eIF5A was observed
MCF10A
  sensitivity to GC7 treatment: one of the most sensitive
